Columns and labels:
[1] = target: Pyruvate kinase PKLR (Homo sapiens, UniProt P30613, R532W); experiment: Activation of PKR R532W mutant (unknown origin) incubated for 60 mins in presence of ADP, PEP and NADH by Spectraax microplate reader based assay
[2] = target: Pyruvate kinase PKLR (Homo sapiens, UniProt P30613); experiment: Activation of wild type PKR (unknown origin) incubated for 60 mins in presence of ADP, PEP and NADH by Spectraax microplate reader based assay
Pyruvate kinase PKLR (Homo sapiens, UniProt P30613), sequence (P30613 whole entry): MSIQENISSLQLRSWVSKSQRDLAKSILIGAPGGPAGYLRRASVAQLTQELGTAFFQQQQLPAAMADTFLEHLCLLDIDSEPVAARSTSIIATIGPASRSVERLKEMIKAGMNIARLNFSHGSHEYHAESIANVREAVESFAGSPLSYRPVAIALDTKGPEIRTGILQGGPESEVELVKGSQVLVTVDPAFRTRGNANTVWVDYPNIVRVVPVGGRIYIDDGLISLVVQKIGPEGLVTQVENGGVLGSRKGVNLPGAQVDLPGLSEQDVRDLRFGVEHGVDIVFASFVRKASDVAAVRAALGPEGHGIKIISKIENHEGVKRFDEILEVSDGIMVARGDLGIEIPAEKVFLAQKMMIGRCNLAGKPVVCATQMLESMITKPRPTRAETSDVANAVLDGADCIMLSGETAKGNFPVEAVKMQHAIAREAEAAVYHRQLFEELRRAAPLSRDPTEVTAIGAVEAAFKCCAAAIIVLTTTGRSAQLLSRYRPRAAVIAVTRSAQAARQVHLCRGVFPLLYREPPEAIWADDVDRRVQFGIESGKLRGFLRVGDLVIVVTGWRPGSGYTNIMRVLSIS

Pyruvate kinase PKLR (Homo sapiens, UniProt P30613, R532W), sequence (P30613 whole entry R532W): as the sequence (P30613 whole entry) above, with R532W counted along it

Row | SMILES | AC50 [1] [nM] | AC50 [2] [nM]
1 | Cc1nc(C2(O)CCN(C(=O)c3ccc(NS(=O)(=O)c4cccc5cccnc45)cc3)CC2)ccc1F | < 100 | < 100
2 | O=C(c1ccc(NS(=O)(=O)c2cccc3ccoc23)cc1)N1CCC(O)(c2ccccc2Cl)CC1 | < 100 | < 100
3 | O=C(c1ccc(NS(=O)(=O)c2ccc(F)c3cccnc23)cc1)N1CCC(O)(CC2CCC2)CC1 | < 100 | < 100
4 | COc1ccccc1C1(O)CCN(C(=O)c2ccc(NS(=O)(=O)c3cccc4cccnc34)cc2)CC1 | < 100 | < 100
5 | O=C(c1ccc(NS(=O)(=O)c2ccc(C(F)(F)F)cc2)cc1)N1CCC(O)(Cc2ccccc2)CC1 | > 10000 | > 10000
6 | CC(F)(F)CCC1(O)CCN(C(=O)c2ccc(NS(=O)(=O)c3cccc4scnc34)cc2OC(F)F)CC1 | < 100 | < 100
7 | O=C(c1ccc(NS(=O)(=O)c2cccc3cccnc23)cc1)N1CCC(O)(c2cccnc2F)CC1 | – | < 100
8 | COc1cc(NS(=O)(=O)c2cccc3cccnc23)ccc1C(=O)N1CCC(O)(c2ccccc2Cl)CC1 | < 100 | < 100
9 | O=C(c1ccc(NS(=O)(=O)c2cccc3ccc(F)nc23)cc1)N1CCC(O)(c2ccccc2Cl)CC1 | < 100 | < 100
10 | CC(F)(F)CCC1(O)CCN(C(=O)c2ccc(NS(=O)(=O)c3cc(F)cc4sc(N)nc34)cc2F)CC1 | – | < 100
11 | N#Cc1cccc(S(=O)(=O)Nc2ccc(C(=O)N3CCC(O)(Cc4ccccc4)CC3)cc2)c1 | – | > 10000
12 | O=C(c1ccc(NS(=O)(=O)c2cccc3ocnc23)cc1)N1CCC(O)(c2ccccc2Cl)CC1 | – | < 100
13 | O=C(c1ccc(NS(=O)(=O)c2cccc3cccnc23)cc1)N1CCC(O)(/C=C/C(F)F)CC1 | – | < 100
14 | CC(F)(F)CCC1(O)CCN(C(=O)c2ccc(NS(=O)(=O)c3cccc4nccnc34)cc2OC(F)F)CC1 | < 100 | –
15 | O=C(c1ncc(NS(=O)(=O)c2cccc3cccnc23)cn1)N1CCC(O)(c2ccccc2)CC1 | – | > 10000

More lines, now with the values ahead:

Row | AC50 [1] [nM] | AC50 [2] [nM] | SMILES
16 | > 10000 | > 10000 | CC(C)CC1(O)CCN(C(=O)c2ccc(NS(=O)(=O)c3cccc4snnc34)cc2)CC1
17 | < 100 | < 100 | O=C(c1ccc(NS(=O)(=O)c2cccc3nccnc23)cc1)N1CCC(O)(CCC(F)(F)F)CC1
18 | < 100 | < 100 | O=C(c1ccc(NS(=O)(=O)c2cccc3scnc23)cc1)N1CCC(O)(c2scnc2Cl)CC1
19 | < 100 | < 100 | Cc1cc(C2(O)CCN(C(=O)c3ccc(NS(=O)(=O)c4cccc5scnc45)cc3)CC2)sn1
20 | < 100 | < 100 | O=C(c1ccc(NS(=O)(=O)c2cccc3cccnc23)cc1)N1CCC(O)(Cc2ccccn2)CC1
21 | < 100 | < 100 | O=C(c1ccc(NS(=O)(=O)c2cccc3scnc23)cc1)N1CCC(O)(Cc2cn[nH]c2)CC1
22 | < 100 | < 100 | O=C(c1ccc(NS(=O)(=O)c2cccc3cccnc23)cc1)N1CCC(O)(Cc2cccc(C(F)(F)F)c2)CC1
23 | < 100 | < 100 | Cc1cc(CC2(O)CCN(C(=O)c3ccc(NS(=O)(=O)c4cccc5nccnc45)cc3)CC2)sn1
24 | < 100 | < 100 | Cc1n[nH]c(C)c1CC1(O)CCN(C(=O)c2ccc(NS(=O)(=O)c3cccc4nccnc34)cc2)CC1
25 | < 100 | < 100 | CC(C)CC1(CO)CCN(C(=O)c2ccc(NS(=O)(=O)c3cccc4scnc34)cc2)CC1
26 | < 100 | – | Cn1nccc1CC1(O)CCN(C(=O)c2ccc(NS(=O)(=O)c3cccc4scnc34)cc2)CC1
27 | – | < 100 | O=C(c1ccc(NS(=O)(=O)c2cccc3scnc23)cc1)N1CCC(O)(Cc2nc(Cl)cs2)CC1
28 | – | < 100 | COCCC1(O)CCN(C(=O)c2ccc(NS(=O)(=O)c3cccc4cccnc34)cc2)CC1
29 | < 100 | – | Cn1cc(CC2(O)CCN(C(=O)c3ccc(NS(=O)(=O)c4cccc5scnc45)cc3)CC2)cn1
30 | < 100 | – | CCOCC1(O)CCN(C(=O)c2ccc(NS(=O)(=O)c3cccc4cccnc34)cc2)CC1
31 | > 10000 | – | O=C(c1ccc(NS(=O)(=O)c2cccnc2)cc1)N1CCC(O)(Cc2ccccc2)CC1
